The values that follow come from PMC2717426, “The effect of exogenous glucagon-like peptide-1 on the glycaemic response to small intestinal nutrient in the critically ill: a randomised double-blind placebo-controlled cross over study” (Critical Care, 2009).

Data set [1] is described as follows: Blood glucose response to small intestinal nutrient infusion during intravenous GLP-1 infusion (bedside glucometer). Format: in vivo, critically ill patients. The procedure:
Seven critically ill adult patients (four males, three females, age range 28 to 76 years), predicted to remain mechanically ventilated for more than 48 hours, were studied. Exclusion criteria included pregnancy, pre-existing diabetes, contraindication to enteral feeding or post-pyloric catheter insertion, and previous surgery on the oesophagus, stomach or duodenum.
(§1) Patients were studied on two consecutive days, in which they received intravenous GLP-1 or placebo in a randomised, double-blind fashion. Twelve hours prior to the study, a naso-duodenal feeding catheter was inserted and confirmed via abdominal x-ray. On each study day enteral feeding was ceased at least four hours prior to the commencement of the study. Exogenous insulin (Actrapid, Novo-Nordisk, Copenhagen, Denmark) infusion was ceased at least two hours before the commencement of the study drug. Patient weight was provided by a relative and/or estimated by a dietician. […] The study investigators were blinded to each infusion, which were concealed in a glass bottle covered by black plastic. […] At t = 30 minute Ensure® (Abbott, Melbourne, Australia), a mixed nutrient liquid (64% carbohydrate, 1 kcal/ml), was delivered continuously into the small intestine at a rate of 1.5 ml/min for four hours (i.e. t = 30 to 270 min).
(§2) Blood glucose was measured at the bedside using a portable glucometer (Medisense Optimum, Abbott, Melbourne, Australia). Blood was collected, separated by centrifugation and the resulting plasma was stored at -70° until assayed for hormone concentrations. Plasma insulin was measured by ELISA (Diagnostics Systems Laboratories, Webster, Texas, USA) with an inter-assay coefficient of variation (CV) of 6.2%.
(§3) Data are presented as mean ± standard error of the mean. Area under the curve (AUC) was calculated using the trapezoidal rule. […] The ratios of insulin/glucose were calculated, as described previously. Statistical analyses were performed using SPSS (Version 15.0, Chicago, Illinois, USA). Distribution and sensitivity analysis, using nonparametric analyses, allowed parametric testing of data. The difference between intervention and placebo was assessed using paired samples; Student's paired t-test and repeated measures analysis of variance. Data were evaluated for potential carry over effect. The null hypothesis was rejected at the 0.05 significance.

A short description of data set [2]: Plasma insulin (ELISA) and insulin/glucose ratio during GLP-1 infusion. The format is in vivo, critically ill patients. Particulars: GLP-1 1.2 pmol/kg/min i.v., mean ± SEM, n = 7. The source says:
Patients were studied on two consecutive days, in which they received intravenous GLP-1 or placebo in a randomised, double-blind fashion. Twelve hours prior to the study, a naso-duodenal feeding catheter was inserted and confirmed via abdominal x-ray. On each study day enteral feeding was ceased at least four hours prior to the commencement of the study. Exogenous insulin (Actrapid, Novo-Nordisk, Copenhagen, Denmark) infusion was ceased at least two hours before the commencement of the study drug. Patient weight was provided by a relative and/or estimated by a dietician. […] The study investigators were blinded to each infusion, which were concealed in a glass bottle covered by black plastic. […]
Blood glucose was measured at the bedside using a portable glucometer (Medisense Optimum, Abbott, Melbourne, Australia). […] Plasma insulin was measured by ELISA (Diagnostics Systems Laboratories, Webster, Texas, USA) with an inter-assay coefficient of variation (CV) of 6.2%.
Data are presented as mean ± standard error of the mean. Area under the curve (AUC) was calculated using the trapezoidal rule. […] The ratios of insulin/glucose were calculated, as described previously. […] The difference between intervention and placebo was assessed using paired samples; Student's paired t-test and repeated measures analysis of variance. Data were evaluated for potential carry over effect. […]
Background: In an ELISA, binding on a coated surface is turned into a signal by an enzyme label.

A short description of data set [3]: Total plasma GLP-1 concentration (radioimmunoassay) during GLP-1 infusion. The format is in vivo, critically ill patients.
From the text: as §1, §2, §3

A short description of data set [4]: Plasma glucagon concentration (radioimmunoassay) during GLP-1 infusion. Particulars: GLP-1 1.2 pmol/kg/min i.v.; trapezoidal rule; mean ± SEM, n = 7. The format is in vivo, critically ill patients.
A short description of data set [5]: Tolerability of the study infusion. Particulars: GLP-1 1.2 pmol/kg/min i.v. over 270 minutes; all 7 patients. The format is in vivo, critically ill patients.
From the text: as §1

For data set [6] the following is noted: GLP-1 infusion at 1.2 pmol/kg/min; postoperative patients with type 2 diabetes; cited from earlier work. The source says: Hyperglycaemia in critically ill patients, not previously known to have diabetes, is associated with poorer outcomes than in patients with pre-existing diabetes. […] Insulin infusions were ceased two hours before the commencement of the study to ensure clearance of exogenous insulin. Given t ...

Setting [7] is: GLP-1 1.2 pmol/kg/min i.v. t = 0-270 min, intra-duodenal Ensure 1.5 kcal/min t = 30-270 min, mean ± SEM, n = 7.
The mark [8] stands for this setting: GLP-1 1.2 pmol/kg/min i.v., total GLP-1, radioimmunoassay, mean ± SEM, n = 7.

Consider GLP-1-(7–36) amide, for which, in data set [1] (GLP-1 1.2 pmol/kg/min i.v. from t = 0, before start of small intestinal nutrient, vs placebo), the “Effect on blood glucose prior to nutrient infusion, t = 30 min” value is “no effect”. Moreover, in data set [1] (setting [7]), the “Blood glucose concentration, t = 180 min” value worked out at 9.3 ± 0.6 mmol/L and the Peak blood glucose turned out to be 10.1 ± 0.7 mmol/L. Also, the “Overall glycaemic response, blood glucose AUC30–270 min” value in data set [1] (GLP-1 1.2 pmol/kg/min i.v., intra-duodenal Ensure 1.5 kcal/min t = 30-270 min, trapezoidal rule, mean ± SEM, n = 7) is 2077 ± 144 mmol·min/L. In data set [1] (GLP-1 study day, prior to infusion, arterial blood, glucometer, mean ± SEM, n = 7), the “Baseline blood glucose concentration, t = 0 min” value is 7.5 ± 0.4 mmol/L. Further, in data set [2] (entire study period, trapezoidal rule), the “Plasma insulin AUC0–270 min” value is 16,203 ± 5193 mU/l min. The “Plasma insulin, t = 270 min” value in data set [2] (intra-duodenal nutrient, ELISA) was determined as 79 ± 21 mU/l. The “Plasma GLP-1 AUC0–270 min” value in data set [3] (GLP-1 1.2 pmol/kg/min i.v. for 270 min, trapezoidal rule, mean ± SEM, n = 7) was 31,659 ± 4203 pmol/l min. The “Time after which steady state plasma GLP-1 concentrations were achieved” value in data set [3] (GLP-1 1.2 pmol/kg/min i.v. infusion) is 30 min. For the same substance, in data set [3] (setting [8]), the “Plasma GLP-1 concentration, t = 30 min” value stood at 124 ± 15 pmol/L and the “Plasma GLP-1 concentration, t = 90 min” value amounted to 131 ± 13 pmol/L. In data set [4], the “Plasma glucagon AUC0–270 minutes” value was 22,786 ± 6040 pmol/l min. Also, the “Tolerability of the study” value in data set [5] is given as “well tolerated”. In data set [6], the “Effect on fasting glycaemia” value is given as “achieved fasting normoglycaemia” and the Tolerability result is on record as “well tolerated”.
